Results as given in the supplement of paper PMC10307832.

How the values were obtained:
Assay in all cases: relative viability (nuclei count vs DMSO), 5 days (fraction); higher = more cells survive
Bexarotene + Linsitinib = compound: C=C(c1ccc(C(=O)O)cc1)c1cc2c(cc1C)C(C)(C)CCC2(C)C [Bexarotene] + C[C@]1(O)C[C@@H](c2nc(-c3ccc4ccc(-c5ccccc5)nc4c3)c3c(N)nccn32)C1 [Linsitinib] (partner 1 µM)
Procedure, shortened: (§1)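 A single step with final 0.05% Triton X-100, 1% formaldehyde and 1 ug/ml Hoechst fixed the cells and stained nuclei 5 days after treatment. Lung cancer cell lines in 1536-well plates had been treated by pin tool the day after seeding with one drug alone or a fixed anchor-drug dose plus five library-drug doses (not always all listed) in √10 steps, and nuclei were counted on 4× images. Relative viability is the ratio of nuclei in treated wells to nuclei in vehicle wells, taken as the median of duplicate plates.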

Bexarotene + Pemetrexed = compound: C=C(c1ccc(C(=O)O)cc1)c1cc2c(cc1C)C(C)(C)CCC2(C)C [Bexarotene] + Nc1nc2[nH]cc(CCc3ccc(C(=O)N[C@@H](CCC(=O)O)C(=O)O)cc3)c2c(=O)[nH]1 [Pemetrexed] (partner 0.2 µM)
Procedure, shortened: as §1

Bexarotene + Vorinostat = compound: C=C(c1ccc(C(=O)O)cc1)c1cc2c(cc1C)C(C)(C)CCC2(C)C [Bexarotene] + O=C(CCCCCCC(=O)Nc1ccccc1)NO [Vorinostat] (partner 1 µM)
Procedure, shortened: as §1

Bexarotene + Olaparib = compound: C=C(c1ccc(C(=O)O)cc1)c1cc2c(cc1C)C(C)(C)CCC2(C)C [Bexarotene] + O=C(c1cc(Cc2n[nH]c(=O)c3ccccc23)ccc1F)N1CCN(C(=O)C2CC2)CC1 [Olaparib] (partner 8 µM)
Procedure, shortened: as §1

Cell Line | relative viability (Bexarotene + Linsitinib; first compound 0.08 µM) | relative viability (Bexarotene + Linsitinib; first compound 0.253 µM) | relative viability (Bexarotene + Linsitinib; first compound 0.8 µM) | relative viability (Bexarotene + Linsitinib; first compound 2.53 µM) | relative viability (Bexarotene + Linsitinib; first compound 8 µM) | relative viability (Bexarotene + Pemetrexed; first compound 0.08 µM) | relative viability (Bexarotene + Pemetrexed; first compound 0.253 µM) | relative viability (Bexarotene + Pemetrexed; first compound 0.8 µM) | relative viability (Bexarotene + Pemetrexed; first compound 2.53 µM) | relative viability (Bexarotene + Pemetrexed; first compound 8 µM) | relative viability (Bexarotene + Vorinostat; first compound 0.08 µM) | relative viability (Bexarotene + Vorinostat; first compound 0.253 µM) | relative viability (Bexarotene + Vorinostat; first compound 0.8 µM) | relative viability (Bexarotene + Vorinostat; first compound 2.53 µM) | relative viability (Bexarotene + Vorinostat; first compound 8 µM) | relative viability (Bexarotene + Olaparib; first compound 0.08 µM) | relative viability (Bexarotene + Olaparib; first compound 0.253 µM) | relative viability (Bexarotene + Olaparib; first compound 0.8 µM) | relative viability (Bexarotene + Olaparib; first compound 2.53 µM) | relative viability (Bexarotene + Olaparib; first compound 8 µM)
LCLC-103H | 1.24 | 1.15 | 1 | 1.06 | 1.14 | 0.462 | 0.453 | 0.462 | 0.436 | 0.472 | 0.891 | 0.976 | 0.691 | 0.771 | 0.875 | 0.827 | 0.896 | 0.699 | 0.779 | 0.825
LK-2 | 0.513 | 0.713 | 0.692 | 0.705 | 0.773 | 0.353 | 0.292 | 0.285 | 0.275 | 0.238 | 0.337 | 0.278 | 0.342 | 0.277 | 0.332 | 0.97 | 0.632 | 0.981 | 0.652 | 0.841
LOU-NH91 | 0.912 | 0.901 | 0.806 | 0.79 | 0.823 | 0.449 | 0.43 | 0.399 | 0.399 | 0.386 | 0.973 | 0.956 | 0.933 | 0.836 | 0.849 | 0.905 | 0.932 | 0.875 | 0.841 | 0.823
LU99A | 0.616 | 0.504 | 0.477 | 0.518 | 0.653 | 0.19 | 0.194 | 0.206 | 0.189 | 0.171 | 0.597 | 0.539 | 0.551 | 0.527 | 0.612 | 0.276 | 0.306 | 0.277 | 0.311 | 0.273
LXF-289 | 1.06 | 1.11 | 1.04 | 1.11 | 1.01 | 1.04 | 1.12 | 1.16 | 0.974 | 1.04 | 0.906 | 0.907 | 0.861 | 0.789 | 0.935 | 1.21 | 1.16 | 1.1 | 1.06 | 1.2
NCI-H23 | 0.737 | 0.673 | 0.533 | 0.638 | 0.654 | 0.948 | 0.715 | 0.669 | 0.626 | 0.686 | 0.715 | 0.782 | 0.599 | 0.453 | 0.541 | 0.344 | 0.341 | 0.289 | 0.294 | 0.3
